“And” between values parts separate entries of the source, which are not always exact repeats. Equal values may be shown once. Read-outs that look alike come from different tables or passages of the source. *1 amine or outer side, *2 acyl side, *3 side chain or, on linkers, in order; H or OH if unused. Where a SMILES comes first, the peptide text is derived from it. Side-chain parts run from the residue outwards. [ ]: non-standard residue; d: D form. The star is where a group is joined. Bip(2'-Et-4'-O(CH2)4NH2) = CCc1cc(OCCCCN[*:3])ccc1-c1ccc(C[C@H](N[*:1])C(=O)[*:2])cc1; Bip(2'-Et,4'-O(CH2)4N3) = CCc1cc(OCCCCN=[N+]=[N-])ccc1-c1ccc(C[C@H](N)C(=O)O)cc1; Malonyl(2,2-Me2,histaminyl) = CC(C)(C(=O)NCCc1cnc[nH]1)C(=O)*; Nva(5-(3,5-Me2Ph)) = Cc1cc(C)cc(CCC[C@H](N)C(=O)O)c1; Ala(1H-tetrazol-5-yl) = N[C@@H](Cc1nnn[nH]1)C(=O)O; PEG8 = NCCOCCOCCOCCOCCOCCOCCOCCOCCC(=O)O; αMePhe(2-F) = C[C@](N)(Cc1ccccc1F)C(=O)O; DBCO = C1#Cc2ccccc2N(*)Cc2ccccc21; Suc = O=C(CCC(=O)[*:2])[*:1]
Tests used:
[1] = Water solubility of linker-payload; assay type: physicochemical
human GLP1R [2] = target: T1, human GLP1R (Homo sapiens, UniProt P43220); assay: Luciferase reporter assay, HEK293/CRE-Luc/hGLP1R (Example 17); assay type: cell-based; parameters: engineered to express full-length human GLP1R, cynomolgus GLP1R; expressed in transfected cells; host or cells: HEK293/CRE-Luc; conditions: HEK293/CRE-Luc/hGLP1R
How it was run: (§1)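 HEK293 cells carrying a CRE-driven firefly luciferase reporter were exposed to 3-fold serial dilutions of payloads or linker-payloads (12 points, 0.2% DMSO final) for 4–6 h, then luminescence was read. EC50 came from a four-parameter logistic fit; S/N is top RLU over untreated wells, and relative potency and S/N are referenced to M2361.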

HEK293/CRE-Luc cells = assay: Luciferase reporter assay, HEK293/CRE-Luc cells without GLP1R (Example 17); assay type: cell-based, human
How it was run: as §1

human GLP1R [3] = target: T1, human GLP1R; assay: b-arrestin 2 recruitment assay, PathHunter CHO/b-arrestin 2/hGLP1R cells; assay type: cell-based; conditions: read-out: CHO/b-arrestin 2/hGLP1R Emax (% GLP-1)
Protocol: The b-arrestin 2 recruitment assay was performed following manufacter's instructions (Eurofins DiscoverX, #93-0300E2CP0M), with minor modifications. […] Serial dilutions of free payload and LP were performed in 100% DMSO, followed by 1:100 dilution in assay media. Test articles were added to cells (1:5 dilution) with the last well in each serial dilution series serving as a blank control containing only assay media for antibodies and ATLs or assay media with 0.2% DMSO for payload and LP. After a 90-minute incubation at 37° C., PathHunter Detection Reagent (Eurofins DiscoverX, #93-0300E2CP0M) was added to the wells followed by a 1-hour incubation at room temperature. RLUs were measured on EnVision Plate Reader (Perkin Elmer).
(§2) EC50 values for luminescence assays were determined using a four-parameter logistic equation over a 12-point dose response curve (GraphPad Prism).

human GLP1R [4] = target: T1, human GLP1R; assay: CRE-Luc cAMP reporter assay, HEK293/CRE-Luc/hGLP1R (Example 24); assay type: cell-based; parameters: engineered to express full-length human GLP1R, cynomolgus GLP1R; expressed in transfected cells; host or cells: HEK293/CRE-Luc; conditions: HEK293, read-out: HEK293/CRE-Luc/hGLP1R Emax (% GLP-1)
From the text: To test the activity of GLP1R agonist payloads, GLP1R agonist linker-payloads (LPs), and anti-GLP1R antibody-tethered ligands (ATLs) of the invention, a cell-based cAMP responsive luciferase reporter assay was developed. To generate the assay cell line, the firefly luciferase gene was placed under the control of a cAMP response element (CRE) located upstream of a minimal promoter and transfected into HEK293 cells and referred to herein as HEK293/CRE-Luc cells. HEK293/CRE-Luc cells were then engineered to express full-length human GLP1R (HEK293/CRE-Luc/hGLP1R), cynomolgus GLP1R (HEK293/CRE-Luc/mfGLP1R), or mouse GLP1R (HEK293/CRE-Luc/mGLP1R).
Serial dilutions of free payload and linker payloads (LP) were performed in 100% DMSO (ATCC, #4-X-5), followed by 1:100 dilution in assay media. Test articles were added to cells (1:5 dilution) with the last well in each serial dilution series serving as a blank control containing only assay media for antibodies and ATLs or assay media with 0.2% DMSO for payloads and LPs. After a 5-hour incubation at 37° C., luciferase activity was determined by addition of ONE-Glo reagent (Promega, #E6130) followed by measurement of relative light units (RLUs) on an EnVision Plate Reader (Perkin Elmer).
as §2

[5] = relative to M2361 of the same experiment
[6] = ATDCs and references (Table 27)

T1 sequence (P43220 24-463): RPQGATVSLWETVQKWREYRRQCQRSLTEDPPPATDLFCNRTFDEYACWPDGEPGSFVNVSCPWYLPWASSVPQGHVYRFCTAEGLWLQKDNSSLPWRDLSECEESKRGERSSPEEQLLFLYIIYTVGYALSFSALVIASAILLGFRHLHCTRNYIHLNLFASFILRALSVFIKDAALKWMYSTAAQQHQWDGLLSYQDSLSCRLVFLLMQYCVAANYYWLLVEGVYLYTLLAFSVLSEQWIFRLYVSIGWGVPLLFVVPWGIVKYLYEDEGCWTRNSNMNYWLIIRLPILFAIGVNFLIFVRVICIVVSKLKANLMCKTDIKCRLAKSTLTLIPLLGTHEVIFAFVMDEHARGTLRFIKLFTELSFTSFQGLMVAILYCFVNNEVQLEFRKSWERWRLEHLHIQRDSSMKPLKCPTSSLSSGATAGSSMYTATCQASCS

solubility [1] [µM] | S/N (human GLP1R [2]; highest RLU / RLU of untreated wells) | EC50 (human GLP1R [2]; payloads and linker-payloads, experiments A-E, M2361 repeated in each, read-out: EC50) [nM] | Structure (SMILES) | Relative Potency (% M2361 EC50) (human GLP1R [2]; [5]) [%] | Relative Signal:Noise (% M2361) (human GLP1R [2]; [5]) [%] | S/N (HEK293/CRE-Luc cells; HEK293/CRE-Luc cells without hGLP1R, ATDCs and references (Table 27)) | EC50 (HEK293/CRE-Luc cells; HEK293/CRE-Luc cells without hGLP1R, ATDCs and references (Table 27), read-out: EC50) [nM] | S/N (HEK293/CRE-Luc cells; HEK293/CRE-Luc cells without hGLP1R, payloads and linker-payloads) | EC50 (HEK293/CRE-Luc cells; Table 28, reporter cells without GLP1R, read-out: HEK293/CRE-Luc EC50) [nM] | EC50 (HEK293/CRE-Luc cells; Table 29, reporter cells without GLP1R, read-out: HEK293/CRE-Luc EC50) [nM] | Emax (human GLP1R [3]) [%] | Relative Potency (% M2361 EC50) (human GLP1R [2]; [6]) [%] | Relative Signal:Noise (% M2361) (human GLP1R [2]; [6]) [%] | S/N (human GLP1R [2]; [6]) | Emax (human GLP1R [4]) [%]
≥ 0.06 | 323.1 | 0.0742 | CCc1cc(OCCCCNC(=O)CCOCCOCCOCCOCCOCCOCCOCCOCCNC(=O)CCC(=O)N2Cc3ccccc3C#Cc3ccccc32)ccc1-c1ccc(C[C@H](NC(=O)[C@H](CC(=O)O)NC(=O)[C@H](CO)NC(=O)[C@@H](NC(=O)[C@](C)(Cc2ccccc2F)NC(=O)[C@@H](NC(=O)CNC(=O)[C@H](Cc2nn[nH]n2)NC(=O)C(C)(C)C(=O)NCCc2cnc[nH]2)[C@@H](C)O)[C@@H](C)O)C(=O)N[C@@H](CCCc2cc(C)cc(C)c2)C(N)=O)cc1 [LP2, DIBAC-suc-PEG8-P9] ({Malonyl(2,2-Me2,histaminyl)}-[Ala(1H-tetrazol-5-yl)]GT[αMePhe(2-F)]TSD[Bip(2'-Et-4'-O(CH2)4NH2)]([PEG8-Suc-DBCO])[Nva(5-(3,5-Me2Ph))]-NH2) | 36.8 | 137.0 | – | – | – | – | – | – | – | – | – | –
– | – | – | CCc1cc(OCCCCN=[N+]=[N-])ccc1-c1ccc(C[C@H](NC(=O)[C@H](CC(=O)O)NC(=O)[C@H](CO)NC(=O)[C@@H](NC(=O)[C@](C)(Cc2ccccc2F)NC(=O)[C@@H](NC(=O)CNC(=O)[C@H](Cc2nn[nH]n2)NC(=O)C(C)(C)C(=O)NCCc2cnc[nH]2)[C@@H](C)O)[C@@H](C)O)C(=O)N[C@@H](CCCc2cc(C)cc(C)c2)C(N)=O)cc1 [M2361] ({Malonyl(2,2-Me2,histaminyl)}-[Ala(1H-tetrazol-5-yl)]GT[αMePhe(2-F)]TSD[Bip(2'-Et,4'-O(CH2)4N3)][Nva(5-(3,5-Me2Ph))]-NH2) | 100.0 | 100.0 | 1.3 | > 20 | 1.5 and 1.3 | > 200 | > 30 | 107 | 100.0 | 100.0 | 64.3 | 95.8

Source: patent US20230330254A1 (Regeneron Pharmaceuticals, Inc., priority 2022, published 2023)
